Results published in patent publication US20020049223A1, “Quinoline and naphthyridine carboxylic acid antibacterials” (priority 1999, published 2002).
Where a name gives a salt, the structure may show the parent alone. One block for each compound: values may come before it.

Key:
[1] = tested on: Enterococcus faecalis PIU 1967; test: Assay A: in vitro antibacterial activity, agar dilution MIC; assay type: cell-based; conditions: Table 1, Assay A, BHI agar, 35-37° C., about 20 to 24 hours; code B = Enterococcus faecalis PIU 1967; unit assumed
Description: (§1) Assay A. Determination of Biological Activity In Vitro Assay of Antibacterial Activity
(§2) Representative compounds of the invention were assayed in vitro for antibacterial activity. Twelve petri dishes containing successive aqueous dilutions of the test compound mixed with sterilized Brain Heart Infusion (BHI) agar (Difco 0418-01-5) (10 mL) were prepared. Each plate was inoculated with 1:100 (or 1:10 for slow-growing strains, such as Micrococcus and Streptococcus) dilutions of up to 32 different microorganisms using a Steers replicator block. The inoculated plates were incubated at 35-37° C. for about 20 to about 24 hours. In addition, a control plate with BHI agar and no test compound was prepared and incubated at the beginning and end of each test.
(§3) An additional plate containing a compound having known susceptibility patterns for the organisms being tested and belonging to the same antibiotic class as the test compound was also prepared and incubated as a further control and to provide test-to-test comparability. Ciprofloxacin was used for this purpose.
(§4) After incubation, each plate was visually inspected. The minimum inhibitory concentration (MIC) was defined as the lowest concentration of drug yielding no growth, a slight haze, or sparsely isolated colonies on the inoculum spot as compared to the growth control.

Escherichia coli JUHL [2] = test: as above; assay type: cell-based; conditions: Table 1, Assay A, BHI agar, 35-37° C., about 20 to 24 hours; code D = Escherichia coli JUHL; unit assumed
Description: as §1, §2, §3, §4

[3] = tested on: Haemophilus influenzae DILL AMP R; test: as above; assay type: cell-based; conditions: Table 1, Assay A, BHI agar, 35-37° C., about 20 to 24 hours; code E = Haemophilus influenzae DILL AMP R; unit assumed
Description: as §1, §2, §3, §4

[4] = tested on: Moraxella catarrahalis 2604; test: as above; assay type: cell-based; conditions: Table 1, Assay A, BHI agar, 35-37° C., about 20 to 24 hours; code C = Moraxella catarrahalis 2604; unit assumed
Description: as §1, §2, §3, §4

[5] = tested on: Staphylococcus aureus ATCC 6538P; test: as above; assay type: cell-based; conditions: Table 1, Assay A, BHI agar, 35-37° C., about 20 to 24 hours; code A = Staphylococcus aureus ATCC 6538P; unit assumed
Description: as §1, §2, §3, §4

[6] = tested on: Streptococcus pneumoniae ATCC 6303; test: as above; assay type: cell-based; conditions: Table 1, Assay A, BHI agar, 35-37° C., about 20 to 24 hours; code F = Streptococcus pneumoniae ATCC 6303; unit assumed
Description: as §1, §2, §3, §4

[7] = tested on: Enterococcus faecalis PIU 1967; test: Assay B: in vitro antibacterial activity, broth microdilution MIC (NCCLS); assay type: cell-based; conditions: Table 2, Assay B, cation-adjusted Mueller Hinton broth, 35° C., 16 to 20 hr; code B = Enterococcus faecalis PIU 1967; unit assumed
Method in brief: (§5)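 NCCLS broth microdilution with two-fold dilutions in cation-adjusted Mueller Hinton broth, inoculum about 5×10^5 CFU/mL, 35 °C in ambient air for 16-20 h; MIC read visually as lowest concentration completely inhibiting growth. S. pneumoniae: 3% lysed horse blood, 20-24 h; H. influenzae: 5 g/L yeast extract, 0.3 mmol/L hematin, 15 mg/L NAD, 20-24 h.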

Escherichia coli JUHL [8] = test: as above; assay type: cell-based; conditions: Table 2, Assay B, cation-adjusted Mueller Hinton broth, 35° C., 16 to 20 hr; code D = Escherichia coli JUHL; unit assumed
Method in brief: as §5

[9] = tested on: Haemophilus influenzae DILL AMP R; test: as above; assay type: cell-based; conditions: Table 2, Assay B, Mueller Hinton broth with yeast extract, hematin and NAD, 20 to 24 hr; code E = Haemophilus influenzae DILL AMP R; unit assumed
Method in brief: as §5

[10] = tested on: Staphylococcus aureus ATCC 6538P; test: as above; assay type: cell-based; conditions: Table 2, Assay B, cation-adjusted Mueller Hinton broth, 35° C., 16 to 20 hr; code A = Staphylococcus aureus ATCC 6538P; unit assumed
Method in brief: as §5

[11] = tested on: Streptococcus pneumoniae ATCC 6303; test: as above; assay type: cell-based; conditions: Table 2, Assay B, Mueller Hinton broth with 3% lysed horse blood, 20 to 24 hr; code F = Streptococcus pneumoniae ATCC 6303; unit assumed
Method in brief: as §5

melting point: 310 to 312 °C
Structure (SMILES): CC1NCCc2cc(-c3ccc4c(=O)c(C(=O)O)cn(C5CC5)c4n3)sc21.Cl (stereo not drawn)

melting point: > 300 °C (dec.)
Structure (SMILES): Br.CC1(C)CNCc2cc(-c3ccc4c(=O)c(C(=O)O)cn(C5CC5)c4n3)sc21

melting point: > 300 °C (dec.)
Structure (SMILES): Br.CC1(C)CNCc2cc(-c3ccc4c(=O)c(C(=O)O)cn(C5CC5)c4c3)sc21

melting point: 212 to 217 °C (dec.)
Structure (SMILES): Br.COc1c(-c2cc3c(s2)C(C)(C)CNC3)ccc2c(=O)c(C(=O)O)cn(C3CC3)c12

melting point: 258 to 262 °C (dec.)
Structure (SMILES): Br.CC1(C)CNCc2cc(-c3nc4c(cc3F)c(=O)c(C(=O)O)cn4C3CC3)sc21

melting point: 295 to 298 °C
Structure (SMILES): CC1CNCc2sc(-c3ccc4c(=O)c(C(=O)O)cn(C5CC5)c4c3)cc21.Cl (stereo not drawn)

melting point: 254 to 259 °C
Structure (SMILES): COc1c(-c2cc3c(s2)CNCC3C)ccc2c(=O)c(C(=O)O)cn(C3CC3)c12.Cl (stereo not drawn)

melting point: 288 to 290 °C
Structure (SMILES): CC1CNCc2sc(-c3nc4c(cc3F)c(=O)c(C(=O)O)cn4C3CC3)cc21.Cl (stereo not drawn)

melting point: 298 to 300 °C
Structure (SMILES): Cl.O=C(O)c1cn(C2CC2)c2nc(-c3cc4c(s3)CNCC4)ccc2c1=O

melting point: 181 to 183 °C
Structure (SMILES): COc1c(-c2cc3c(s2)CCC/C3=N\OCc2cccnc2)ccc2c(=O)c(C(=O)O)cn(C3CC3)c12 (as salt: hydrochloride) [Example 182, 1-cyclopropyl-8-methoxy-4-oxo-7-((4E)-4-((3-pyridinylmethoxy)imino)-4,5,6,7-tetrahydro-1-benzothien-2-yl)-1,4-dihydro-3-quinolinecarboxylic acid]

melting point: 178 to 179 °C
Structure (SMILES): COc1c(-c2cc3c(s2)CCC/C3=N\OCc2ccccn2)ccc2c(=O)c(C(=O)O)cn(C3CC3)c12 (as salt: hydrochloride) [Example 183, 1-cyclopropyl-8-methoxy-4-oxo-7-((4E)-4-((2-pyridinylmethoxy)imino)-4,5,6,7-tetrahydro-1-benzothien-2-yl)-1,4-dihydro-3-quinolinecarboxylic acid]

Antibacterial Activity (MIC's), B [1]: 0.2 µg/mL
Antibacterial Activity (MIC's), D (Escherichia coli JUHL [2]): 0.2 µg/mL
Antibacterial Activity (MIC's), E [3]: 0.25 µg/mL
Antibacterial Activity (MIC's), C [4]: 0.2 µg/mL
Antibacterial Activity (MIC's), A [5]: 0.1 µg/mL
Antibacterial Activity (MIC's), F [6]: 0.25 µg/mL
Structure (SMILES): Br.CC1Cc2sc(-c3ccc4c(=O)c(C(=O)O)cn(C5CC5)c4c3)cc2CN1 (stereo not drawn) [Example 13, 1-cyclopropyl-7-(6-methyl-4,5,6,7-tetrahydrothieno[3,2-c]pyridin-2-yl)-4-oxo-1,4-dihydro-3-quinolinecarboxylic acid hydrobromide]

Antibacterial Activity (MIC's), B [1]: 0.78 µg/mL
Antibacterial Activity (MIC's), D (Escherichia coli JUHL [2]): 0.78 µg/mL
Antibacterial Activity (MIC's), E [3]: 0.25 µg/mL
Antibacterial Activity (MIC's), C [4]: 0.2 µg/mL
Antibacterial Activity (MIC's), A [5]: 0.2 µg/mL
Antibacterial Activity (MIC's), F [6]: 1 µg/mL
Structure (SMILES): Br.CC1(C)CNCc2cc(-c3ccc4c(=O)c(C(=O)O)cn(C5CC5)c4c3OC(F)F)sc21 [Example 28]

Antibacterial Activity (MIC's), B [1]: 0.39 µg/mL
Antibacterial Activity (MIC's), D (Escherichia coli JUHL [2]): 0.39 µg/mL
Antibacterial Activity (MIC's), E [3]: 0.25 µg/mL
Antibacterial Activity (MIC's), C [4]: 0.2 µg/mL
Antibacterial Activity (MIC's), A [5]: 0.2 µg/mL
Antibacterial Activity (MIC's), F [6]: 1 µg/mL
Structure (SMILES): CC1CNCc2sc(-c3ccc4c(=O)c(C(=O)O)cn(C5CC5)c4n3)cc21.Cl (stereo not drawn) [Example 32, 1-cyclopropyl-7-(4-methyl-4,5,6,7-tetrahydrothieno(2,3-c)pyrdin-2-yl)-4-oxo-1,4-dihydro[1,8]naphthyridine-3-carboxylic acid hydrochloride]

Antibacterial Activity (MIC's), B [1]: 0.78 µg/mL
Antibacterial Activity (MIC's), D (Escherichia coli JUHL [2]): 0.78 µg/mL
Antibacterial Activity (MIC's), E [3]: 0.06 µg/mL
Antibacterial Activity (MIC's), C [4]: 0.05 µg/mL
Antibacterial Activity (MIC's), A [5]: 0.05 µg/mL
Antibacterial Activity (MIC's), F [6]: 0.5 µg/mL
Structure (SMILES): O=C(O)c1cn(C2CC2)c2nc(-c3cc4c(s3)CCCC4O)c(F)cc2c1=O (stereo not drawn) [Example 35, 1-cyclopropyl-6-fluoro-7-(4-hydroxy-4,5,6,7-tetrahydro-1-benzothien-2-yl)-4-oxo-1,4-dihydro[1,8]naphthyridine-3-carboxylic acid]

melting point: 237 to 239 °C
Structure (SMILES): COc1c(-c2cc3c(s2)CCCC3O)ccc2c(=O)c(C(=O)O)cn(C3CC3)c12 (stereo not drawn) [Example 38, 1-cyclopropyl-7-(4-hydroxy-4,5,6,7-tetrahydro-1-benzothien-2-yl)-8-methoxy-4-oxo-1,4-dihydro-3-quinolinecarboxylic acid]

melting point: 238 to 240 °C
Structure (SMILES): COc1c(-c2cc3c(s2)C(O)CCC3)ccc2c(=O)c(C(=O)O)cn(C3CC3)c12 (stereo not drawn) [Example 41, 1-cyclopropyl-7-(7-hydroxy-4,5,6,7-tetrahydro-1-benzothien-2-yl)-8-methoxy-4-oxo-1,4-dihydro-3-quinolinecarboxylic acid]

melting point: 205 to 206 °C
Structure (SMILES): COc1c(-c2cc3c(s2)CCC(CO)=C3)ccc2c(=O)c(C(=O)O)cn(C3CC3)c12 [Example 44, 1-cyclopropyl-7-(5-(hydroxymethyl)-6,7-dihydro-1-benzothien-2-yl)-8-methoxy-4-oxo-1,4-dihydro-3-quinolinecarboxylic acid]

melting point: 266 to 267 °C
Structure (SMILES): COc1c(-c2cc3c(s2)CCCC3=O)ccc2c(=O)c(C(=O)O)cn(C3CC3)c12 [Example 50, 1-cyclopropyl-8-methoxy-4-oxo-7-(4-oxo-4,5,6,7-tetrahydro-1-benzothien-2-yl)-1,4-dihydro-3-quinolinecarboxylic acid]

Antibacterial Activity (MIC's), B [7]: 0.06 µg/mL
Antibacterial Activity (MIC's), D (Escherichia coli JUHL [8]): 0.125 µg/mL
Antibacterial Activity (MIC's), E [9]: 0.03 µg/mL
Antibacterial Activity (MIC's), A [10]: 0.015 µg/mL
Antibacterial Activity (MIC's), F [11]: 0.03 µg/mL
melting point: 174 to 178 °C
Structure (SMILES): COc1c(-c2cc3c(s2)C(N)CCC3)ccc2c(=O)c(C(=O)O)cn(C3CC3)c12.Cl (stereo not drawn) [Example 201, 7-(7-amino-4,5,6,7-tetrahydro-1-benzothien-2-yl)-1-cyclopropyl-8-methoxy-4-oxo-1,4-dihydro-3-quinolinecarboxylic acid hydrochloride]

Antibacterial Activity (MIC's), B [7]: 0.5 µg/mL
Antibacterial Activity (MIC's), D (Escherichia coli JUHL [8]): 0.5 µg/mL
Antibacterial Activity (MIC's), E [9]: 0.25 µg/mL
Antibacterial Activity (MIC's), A [10]: 0.03 µg/mL
Antibacterial Activity (MIC's), F [11]: 0.5 µg/mL
melting point: 93 to 94 °C
Structure (SMILES): COc1c(-c2cc3c(s2)CCC(C)(C)C3O)ccc2c(=O)c(C(=O)O)cn(C3CC3)c12 (stereo not drawn) [Example 213, 1-cyclopropyl-7-(4-hydroxy-5,5-dimethyl-4,5,6,7-tetrahydro-1-benzothien-2-yl)-8-methoxy-4-oxo-1,4-dihydro-3-quinolinecarboxylic acid]

Antibacterial Activity (MIC's), B [7]: 0.03 µg/mL
Antibacterial Activity (MIC's), D (Escherichia coli JUHL [8]): 0.06 µg/mL
Antibacterial Activity (MIC's), E [9]: 0.015 µg/mL
Antibacterial Activity (MIC's), A [10]: 0.008 µg/mL
Antibacterial Activity (MIC's), F [11]: 0.015 µg/mL
melting point: 148 to 153 °C (dec.)
Structure (SMILES): COc1c(-c2cc3c(s2)C(N)CCC3)c(F)cc2c(=O)c(C(=O)O)cn(C3CC3)c12.Cl (stereo not drawn) [Example 228, 7-(7-amino-4,5,6,7-tetrahydro-1-benzothien-2-yl)-1-cyclopropyl-6-fluoro-8-methoxy-4-oxo-1,4-dihydro-3-quinolinecarboxylic acid hydrochloride]

Antibacterial Activity (MIC's), B [7]: 0.5 µg/mL
Antibacterial Activity (MIC's), D (Escherichia coli JUHL [8]): 8 µg/mL
Antibacterial Activity (MIC's), E [9]: 0.5 µg/mL
Antibacterial Activity (MIC's), A [10]: 0.03 µg/mL
Antibacterial Activity (MIC's), F [11]: 2 µg/mL
melting point: 135 to 138 °C
Structure (SMILES): COc1c(-c2cc3c(s2)CCC(C)(C)/C3=N\O)ccc2c(=O)c(C(=O)O)cn(C3CC3)c12 [Example 233, 1-cyclopropyl-7-((4E/Z)-4-(hydroxyimino)-5,5-dimethyl-4,5,6,7-tetrahydro-1-benzothien-2-yl)-8-methoxy-4-oxo-1,4-dihydro-3-quinolinecarboxylic acid]
